Measured values: patent publication US9150569B2, “Nitrogen-containing heterocyclic compound having inhibitory effect on production of kynurenine” (KYOWA HAKKO KIRIN CO., LTD., priority 2010, dated 2015)

Tested on: production of kynurenine in KATO-III cells
Experiment: Inhibitory activity on the production of kynurenine (IFN-γ-treated KATO-III cells, kynurenine in the culture medium quantified by absorbance at 480 nm)
Type: cell-based
Conditions: test compound at 10 μmol/L, human gastric cancer cell line KATO-III, 96 hours, read-out: inhibition rate (production of kynurenine)
Protocol: This assay was performed by a modification of the method described in J. Biol. Chem., vol. 263, pp. 2041-2048 (1988). For culture of the human gastric cancer cell line KATO-III, RPMI 1640 (GIBCO, 11875) supplemented with 10 volt FBS (GIBCO, 10091-148, lot. 665285) was used. One μL of a test substance in a DMSO solution was diluted with 199 μL of the culture medium and placed in wells of a 384-well plate (10 μL/well). Next, IFN-γ (Sigma, 1-3265) was added to the culture medium to a concentration of 31.25 ng/mL, and KATO-III cells were suspended at 50,000 cells/mL in the culture medium. Forty μL of the suspension was added to each well (2,000 cells/well) and incubated under a 5% CO2 atmosphere at 37° C. for 96 hours. The final concentration of DMSO was limited to 0.1 volt or less so that DMSO itself may not affect the kynurenine concentration measured by this assay. After the incubation, 10 μL of a 30 w/vt aqueous trichloroacetic acid solution was added to each well, and incubation was performed at 65° C. for 30 minutes. The plate was centrifuged at 2,500×g for 5 minutes and 15μL of the supernatant in each well was transferred into another 384-well plate. To the transferred supernatant, 15 μL of a 2 w/vt solution of p-dimethylaminobenzaldehyde in acetic acid was added, incubation was performed at 65° C. for 20 minutes and the absorbance was measured at 480 nm.
Sample: the absorbance value of the well to which a DMSO solution containing a test substance was added and in which the cells were treated with IFN-γ.
Blank: the absorbance value of the well to which DMSO not containing a test substance was added and in which the cells were treated with IFN-γ.
Control: the absorbance value of the well to which DMSO not containing a test substance was added and in which the cells were not treated with IFN-γ.
In this assay, expression of IDO in KATO-III cells is induced by IFN-γ treatment and kynurenine in the culture medium is quantified. The kynurenine concentration in a culture medium is known to increase in proportion to the enzymatic activity of intracellular IDO (for example, J. Biol. Chem., vol. 263, pp. 2041-2048 ([…])). […] The production of kynurenine is known to be inhibited by IDO inhibitors (for example, J. Clin. Invest., vol. 117, No. 5, pp. 1147-1154 […]), and thus it is speculated that Compounds (I) also have an inhibitory effect on IDO.

SMILES	inhibition at 10 µM
CCCS(=O)(=O)Nc1nc2ccccc2nc1OC(c1ccc(-c2cnn(C)n2)nc1)C(F)(F)F (stereo not shown) [Compound 64A, N-(3-(2,2,2-trifluoro-1-(6-(2-methyl-2H-1,2,3-triazol-4-yl)pyridin-3-yl)ethoxy)quinoxalin-2-yl)propane-1-sulfonamide]	≥ 80%
CCCS(=O)(=O)Nc1nc2ccccc2nc1OC(c1ccc[n+]([O-])c1)C(C)(C)C (stereo not shown) [Compound 4, 3-(2,2-dimethyl-1-(3-(propylsulfonamido)quinoxalin-2-yloxy)propyl)pyridine 1-oxide]	≥ 80%
CCCS(=O)(=O)Nc1nc2ccccc2nc1OC(c1cnc(SC)nc1)C(F)(F)F (stereo not shown) [Compound 55, N-(3-(2,2,2-trifluoro-1-(2-(methylthio)pyrimidin-5-yl)ethoxy)quinoxalin-2-yl)propane-1-sulfonamide]	≥ 80%
CC(C)CS(=O)(=O)Nc1nc2ccccc2nc1OC(c1ccc2nccn2c1)C(F)(F)F (stereo not shown) [Compound 29, 2-methyl-N-(3-(2,2,2-trifluoro-1-(imidazo[1,2-a]pyridin-6-yl)ethoxy)quinoxalin-2-yl)propane-1-sulfonamide]	≥ 80%
O=S(=O)(CC1CC1)Nc1nc2ccccc2nc1OC(c1ccc2nccn2c1)C(F)(F)F (stereo not shown) [Compound 30, 1-cyclopropyl-N-(3-(2,2,2-trifluoro-1-(imidazo[1,2-a]pyridin-6-yl)ethoxy)quinoxalin-2-yl)methanesulfonamide]	≥ 80%
CCCS(=O)(=O)Nc1nc2cc(I)ccc2nc1OC(c1cccnc1)C(F)(F)F (stereo not shown) [Compound 77, N-(7-iodo-3-(2,2,2-trifluoro-1-(pyridin-3-yl)ethoxy)quinoxalin-2-yl)propane-1-sulfonamide]	≥ 80%
CCCCC(Oc1nc2ccccc2nc1NS(=O)(=O)CCC)c1cccnc1 (stereo not shown) [Compound 11, N-(3-(1-(pyridin-3-yl)pentyloxy)quinoxalin-2-yl)propane-1-sulfonamide]	≥ 80%
CCCS(=O)(=O)Nc1nc2ccccc2nc1OC(c1ccnc(N(C)C(C)=O)c1)C(F)(F)F (stereo not shown) [Compound 49, N-methyl-N-(4-(2,2,2-trifluoro-1-(3-(propylsulfonamido)quinoxalin-2-yloxy)ethyl)pyridin-2-yl)acetamide]	≥ 80%
CCCS(=O)(=O)Nc1nc2ccccc2nc1OC(c1ccc(-c2cnco2)nc1)C(F)(F)F (stereo not shown) [Compound 65, N-(3-(2,2,2-trifluoro-1-(6-(oxazol-5-yl)pyridin-3-yl)ethoxy)quinoxalin-2-yl)propane-1-sulfonamide]	≥ 80%
CCCCC(Oc1nc2ccccc2nc1NS(=O)(=O)CCC)c1ccc[n+]([O-])c1 (stereo not shown) [Compound 12, 3-(1-(3-(propylsulfonamido)quinoxalin-2-yloxy)pentyl)pyridine 1-oxide]	≥ 80%
CCCCS(=O)(=O)Nc1nc2ccccc2nc1OC(c1ccc([S+](C)[O-])nc1)C(F)(F)F (stereo not shown) [Compound 41, N-(3-(2,2,2-trifluoro-1-(6-(methylsulfinyl)pyridin-3-yl)ethoxy)quinoxalin-2-yl)butane-1-sulfonamide]	≥ 80%
CCCS(=O)(=O)Nc1nc2ccccc2nc1OC(c1ccc(S(C)(=O)=O)cc1)C(F)(F)F (stereo not shown) [Compound 25, N-(3-(2,2,2-trifluoro-1-(4-(methylsulfonyl)phenyl)ethoxy)quinoxalin-2-yl)propane-1-sulfonamide]	≥ 80%
COCCS(=O)(=O)Nc1nc2ccccc2nc1OC(c1ccc(-c2ccnn2C)nc1)C(F)(F)F (stereo not shown) [Compound 67, 2-methoxy-N-(3-(2,2,2-trifluoro-1-(6-(1-methyl-1H-pyrazol-5-yl)pyridin-3-yl)ethoxy)quinoxalin-2-yl)ethanesulfonamide]	≥ 80%
CCCS(=O)(=O)Nc1nc2ccccc2nc1OC(c1ccc[n+]([O-])c1)C1(C)CC1 (stereo not shown) [Compound 14, 3-((1-methylcyclopropyl)(3-(propylsulfonamido)quinoxalin-2-yloxy)methyl)pyridine 1-oxide]	≥ 80%
CCCS(=O)(=O)Nc1nc2ccccc2nc1OC(c1ccnc(C#N)c1)C(F)(F)F (stereo not shown) [Compound 44, N-(3-(1-(2-cyanopyridin-4-yl)-2,2,2-trifluoroethoxy)quinoxalin-2-yl)propane-1-sulfonamide]	≥ 80%
CCCS(=O)(=O)Nc1nc2ccccc2nc1OC(C)c1cccnc1 (stereo not shown) [Compound 19, N-(3-(1-(pyridin-3-yl)ethoxy)quinoxalin-2-yl)propane-1-sulfonamide]	≥ 80%
CCCS(=O)(=O)Nc1nc2ccccc2nc1OC(c1cc[n+]([O-])cc1)C(F)(F)F (stereo not shown) [Compound 43, 4-(2,2,2-trifluoro-1-(3-(propylsulfonamido)quinoxalin-2-yloxy)ethyl)pyridine 1-oxide]	≥ 80%
CCCC(Oc1nc2ccccc2nc1NS(=O)(=O)CCC)c1ccc[n+]([O-])c1 (stereo not shown) [Compound 22, 3-(1-(3-(propylsulfonamido)quinoxalin-2-yloxy)butyl)pyridine 1-oxide]	≥ 80%
CCCS(=O)(=O)Nc1nc2ccccc2nc1OC(c1ccc(C#N)nc1)C(F)(F)F (stereo not shown) [Compound 26, N-(3-(1-(6-cyanopyridin-3-yl)-2,2,2-trifluoroethoxy)quinoxalin-2-yl)propane-1-sulfonamide]	≥ 80%
CCCCS(=O)(=O)Nc1nc2ccccc2nc1OC(c1ccc2nccn2c1)C(F)(F)F (stereo not shown) [Compound 28, N-(3-(2,2,2-trifluoro-1-(imidazo[1,2-a]pyridin-6-yl)ethoxy)quinoxalin-2-yl)butane-1-sulfonamide]	≥ 80%
CCCS(=O)(=O)Nc1nc2ccccc2nc1OC(c1ccncc1)C(F)(F)F (stereo not shown) [Compound 42, N-(3-(2,2,2-trifluoro-1-(pyridin-4-yl)ethoxy)quinoxalin-2-yl)propane-1-sulfonamide]	≥ 80%
CCCS(=O)(=O)Nc1nc2ccccc2nc1OC(c1ccnc(N)c1)C(F)(F)F (stereo not shown) [Compound 45, N-(3-(1-(2-aminopyridin-4-yl)-2,2,2-trifluoroethoxy)quinoxalin-2-yl)propane-1-sulfonamide]	≥ 80%
CCCS(=O)(=O)Nc1nc2ccccc2nc1OC(c1ccnc(-n2ccnc2)c1)C(F)(F)F (stereo not shown) [Compound 54, N-(3-(1-(2-(1H-imidazol-1-yl)pyridin-4-yl)-2,2,2-trifluoroethoxy)quinoxalin-2-yl)propane-1-sulfonamide]	≥ 80%
CCCS(=O)(=O)Nc1nc2ccccc2nc1OC(c1ccc2nccn2c1)C(F)(F)F (stereo not shown) [Compound 27, N-(3-(2,2,2-trifluoro-1-(imidazo[1,2-a]pyridin-6-yl)ethoxy)quinoxalin-2-yl)propane-1-sulfonamide]	≥ 80%
CCCS(=O)(=O)Nc1nc2ccccc2nc1OC(c1ccc(CO)nc1)C(F)(F)F (stereo not shown) [Compound 31, N-(3-(2,2,2-trifluoro-1-(6-(hydroxymethyl)pyridin-3-yl)ethoxy)quinoxalin-2-yl)propane-1-sulfonamide]	≥ 80%
